# In patent publication US20090081318A1, “TREATMENT OF NEUROADS USING INHIBITORS OF GLYCOGEN SYNTHASE KINASE (GSK)-3” (priority 2005, published 2009):
# “And” between values parts separate entries of the source, which are not always exact repeats. Equal values may be shown once.
# Key:
# [1] = test system: GSK-3; settings: cited from earlier work
# [2] = biological target: CDK1 (Homo sapiens, UniProt P06493); settings: cited from earlier work
# [3] = test system: GSK-3; settings: acting primarily through beta3-adrenoreceptors; similar extent as insulin; Moule et al. 1997; cited from earlier work
# [4] = test system: subjects with HIV-associated cognitive impairment; test: Neuropsychological evaluations, VPA adjunctive therapy trial; type: in vivo, human
# Experimental: (§1) Twenty-two eligible subjects, six without cognitive impairment and 16 with cognitive impairment, were enrolled and block-randomized within impairment strata to receive 250 mg of VPA or placebo twice daily. Cognitive impairment was defined as performance at least one standard deviation below the mean on two or more neuropsychological tests, or at least two standard deviations below the mean on one neuropsychological test, using normative data previously applied by the Dana cohort (Dana 1996). Subjects were evaluated at 2, 6, and 10 weeks for adverse clinical and laboratory experiences. Neuropsychological evaluations (see Table 3) were performed at screening, week 6, and week 10 along with global assessments of functioning (subject and investigator), the Fatigue Severity Scale, and the Center for Epidemiologic Studies Depression Scale. A neurological examination and CD4+/CD8+ counts were performed at screening and week 10, while plasma HIV viral load was measured at baseline and week 10.
# (§2) Tolerability was assessed based on the proportion of subjects able to complete the 10-week study at the original dose of study medication. Safety measures included the occurrences of adverse events and abnormal results on laboratory tests. Measures of efficacy included changes from baseline in: neuropsychological test scores; the Investigator Clinical Global Impression; MRI indices; functioning; and mood. The study was designed to provide approximately 80% power to detect a 45% difference in tolerability (i.e. 95% versus 50%) between the placebo and VPA groups using a one-sided Fisher's exact test at the 5% level of significance.
# Changes from baseline were assessed using paired t-tests. Comparisons between treatment arms were based on unequal-variance two-sample t-tests for continuous variables, and Fisher's Exact Tests for categorical variables. Comparisons between treatment arms were adjusted for baseline values using Analysis of Covariance. Primary statistical analyses were performed according to the intention-to-treat principle, using the last-observation-carried-forward imputation strategy for subjects who prematurely dropped out of the study. Secondary analyses excluded such subjects.
# [5] = set-up: species or system human; settings: in vivo
# Experimental: as §1
# Tolerability was assessed based on the proportion of subjects able to complete the 10-week study at the original dose of study medication. Safety measures included the occurrences of adverse events and abnormal results on laboratory tests. […]
# [6] = test system: HIV; test: Plasma HIV viral load; type: in vivo; settings: individual subjects on VPA (three subjects; the first changed antiretroviral therapy); listed as VPA
# Experimental: as §1
# [7] = test system: subjects with HIV-associated cognitive impairment; test: Investigator Clinical Global Impression; settings: human, in vivo
# Experimental: as §2
# [8] = impaired participants, n = 9, VPA 250 mg twice daily
# [9] = impaired participants, valproic acid minus placebo mean change to week 10, adjusted for baseline, negative = better on valproic acid
# [10] = impaired participants, valproic acid minus placebo mean change to week 10, adjusted for baseline, positive = better on valproic acid
# Chain of CDK1 (P06493 whole entry, species assumed): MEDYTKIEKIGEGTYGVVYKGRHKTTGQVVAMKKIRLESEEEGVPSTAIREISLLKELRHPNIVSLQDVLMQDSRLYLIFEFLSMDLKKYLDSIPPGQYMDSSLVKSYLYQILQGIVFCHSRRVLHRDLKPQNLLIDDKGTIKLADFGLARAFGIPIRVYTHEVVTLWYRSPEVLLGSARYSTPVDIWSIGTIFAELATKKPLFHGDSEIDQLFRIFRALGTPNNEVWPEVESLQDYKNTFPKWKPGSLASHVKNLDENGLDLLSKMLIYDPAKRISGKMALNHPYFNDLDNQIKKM
# Chain of CDK1 (P14635 whole entry partner, species assumed): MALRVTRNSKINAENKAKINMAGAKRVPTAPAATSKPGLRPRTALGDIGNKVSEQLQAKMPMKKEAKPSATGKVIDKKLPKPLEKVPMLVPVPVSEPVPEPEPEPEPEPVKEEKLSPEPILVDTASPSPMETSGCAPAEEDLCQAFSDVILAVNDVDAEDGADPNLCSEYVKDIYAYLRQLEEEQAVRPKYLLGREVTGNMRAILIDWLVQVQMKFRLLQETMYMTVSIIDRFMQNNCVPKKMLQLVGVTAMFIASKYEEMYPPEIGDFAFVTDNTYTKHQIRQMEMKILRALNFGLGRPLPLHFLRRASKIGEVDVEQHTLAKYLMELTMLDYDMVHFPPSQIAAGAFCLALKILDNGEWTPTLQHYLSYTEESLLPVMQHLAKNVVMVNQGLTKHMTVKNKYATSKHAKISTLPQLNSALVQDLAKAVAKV
compound,measurement,setting,value
[Be+2] [Beryllium],IC50,[1]; read-out: Inhibition potency IC50,6 µM
same,IC50,[2],50 µM
CC(C)NCC(O)c1ccc(O)c(O)c1 (centres unmarked) [Isoproterenol],Decrease of GSK-3 activity,[3],approximately 50%
"CCCC(CCC)C(=O)O [Valproic Acid, Valproic acid]","Composite Neuropsychological Z-score, mean change from baseline to week 10",[4]; [8],4.56
same,"Digit Symbol, mean change from baseline to week 10",[4]; [8],6.56
same,"Grooved Pegboard Dominant Hand, mean change from baseline to week 10",[4]; [8],-9.33 s
same,"Grooved Pegboard Nondominant Hand, mean change from baseline to week 10",[4]; [8],-6.44 s
same,"Mean Reaction Time Choice, mean change from baseline to week 10",[4]; [8],-43.38 ms
same,"Mean Reaction Time Sequential, mean change from baseline to week 10",[4]; [8],-8.63 ms
same,"Rey Auditory Verbal Memory Correct Recognition, mean change from baseline to week 10",[4]; [8],0.11
same,"Rey Auditory Verbal Memory Delayed Recall, mean change from baseline to week 10",[4]; [8],1.11
same,"Rey Auditory Verbal Memory Recall after Interference, mean change from baseline to week 10",[4]; [8],−0.22
same,"Rey Auditory Verbal Memory Trial 5, mean change from baseline to week 10",[4]; [8],0.78
same,"Timed Gait, mean change from baseline to week 10",[4]; [8],-0.65 s
same,"Grooved Pegboard Dominant Hand, Treatment Effect",[4]; [9],-10.56 s
same,"Grooved Pegboard Nondominant Hand, Treatment Effect",[4]; [9],-4.53 s
same,"Mean Reaction Time Choice, Treatment Effect",[4]; [9],5.67 ms
same,"Mean Reaction Time Sequential, Treatment Effect",[4]; [9],29.08 ms
same,"Timed Gait, Treatment Effect",[4]; [9],-0.25 s
same,"Composite Neuropsychological Z-score, Treatment Effect",[4]; [10],2.31
same,"Digit Symbol, Treatment Effect",[4]; [10],5.02
same,"Rey Auditory Verbal Memory Correct Recognition, Treatment Effect",[4]; [10],1.16
same,"Rey Auditory Verbal Memory Delayed Recall, Treatment Effect",[4]; [10],1.82
same,"Rey Auditory Verbal Memory Recall after Interference, Treatment Effect",[4]; [10],1.57
same,"Rey Auditory Verbal Memory Total, Treatment Effect",[4]; [10],2.22
same,"Rey Auditory Verbal Memory Trial 5, Treatment Effect",[4]; [10],−0.38
same,Between group differences on independent neuropsychological tests and composite z-score,"[4]; impaired subjects, VPA vs placebo",not statistically significant
same,Adverse experience,[5],mild new onset of acid reflux
same,Increase in liver function tests,[5],< 2.5 times the upper limit of normal
same,Change in plasma HIV RNA from baseline to week 10,[6],"33,300 to 316 copies/ml and 100,000 to 93,900 copies/ml and 32,500 to 24,700 copies/ml"
same,"Investigator clinical global impression, placebo vs VPA group",[7],No significant difference
GRPRTTS*FAE [Pseudosubstrate peptide],Ki,[1]; read-out: Inhibition potency Ki,700 µM
